The values that follow come from US6017935A, “7-sulfur substituted paclitaxels” (Bristol-Myers Squibb Company, priority 1998, dated 2000).

Tested on in one assay: not given
Assay: not given
Particulars: background statement; cited from earlier work.
On to `CC(=O)O[C@@]12CO[C@@H]1C[C@H](O)[C@@]1(C)C(=O)[C@H](O)C3=C(C)[C@@H](OC(=O)[C@H](O)[C@@H](NC(=O)OC(C)(C)C)c4ccccc4)C[C@@](O)([C@@H](OC(=O)c4ccccc4)[C@H]21)C3(C)C` [docetaxel], for which the antitumor activity result is “good antitumor activity”.

For the next assay, the system named is HCT-116 human colon carcinoma cells. Briefly: Cytotoxicity (in vitro) MTS assay in HCT-116 human colon carcinoma cells. The assay is classed as cell-based. Conditions: Homo sapiens, HCT-116, 72 h, read-out: IC50 HCT 116, HCT-116 cells, MTS assay, 72 hours at 37° C.; drug concentration required to inhibit cell proliferation to 50% of untreated control. The protocol:
Cytoxicity was assessed in HCT-116 human colon carcinoma cells by MTS (3-(4,5-dimethylthiazol-2-yl)-5-(3-carboxymethoxyphenyl)-2-(4-sulphenyl)-2H-tetrazolium, inner salt) assay as reported in T. L. Riss, et al., "Comparison of MTT, XTT, and a novel tetrazolium compound MTS for in vitro proliferation and chemosensitivity assays.", Mol. Biol. Cell 3 (Suppl.):184a, 1992. Cells were plated at 4,000 cell/well in 96 well microtiter plates and 24 hours later drugs were added and serial diluted. The cells were incubated at 37° C. for 72 hours at which time the tetrazolium dye, MTS at 333 μg/ml (final concentration), in combination with the electron coupling agent phenazine methosulfate at 25 μM (final concentration) was added. A dehydrogenase enzyme in live cell reduces the MTS to a form that absorbs light at […] which can be quantitated spectrophotometrically. The greater the absorbance the greater the number of live cells. The results are expressed as an IC50, which is the drug concentration required to inhibit cell proliferation (i.e. absorbance at 450 nm) to 50% of that of untreated control cells.
Regarding `CC(=O)O[C@H]1C(=O)[C@]2(C)[C@@H](SC[S+](C)[O-])C[C@H]3OC[C@@]3(OC(C)=O)[C@H]2[C@H](OC(=O)c2ccccc2)[C@]2(O)C[C@H](OC(=O)[C@H](O)[C@@H](NC(=O)c3ccccc3)c3ccccc3)C(C)=C1C2(C)C` (stereo partly drawn) [31a&b, 7-deoxy-7β-methylsulfinylmethylthiopaclitaxel], the 50% inhibitory concentration (IC50) turned out to be 6.48 nM.
As to `CS[C@@H]1C[C@H]2OC[C@@]2(OC(C)=O)[C@H]2[C@H](OC(=O)c3ccccc3)[C@]3(O)C[C@H](OC(=O)[C@H](O)[C@@H](NC(=O)c4ccccc4)c4ccccc4)C(C)=C([C@@H](OC(C)=O)C(=O)[C@@]21C)C3(C)C` [Compound 5a, 7-deoxy-7α-thiomethylpaclitaxel], the IC50 worked out at 13.1 nM.
The same measure, in the same setting: to `CC(=O)O[C@H]1C(=O)[C@@]2(C)[C@H]([C@H](OC(=O)c3ccccc3)[C@]3(O)C[C@H](OC(=O)[C@H](O)[C@@H](NC(=O)c4ccccc4)c4ccccc4)C(C)=C1C3(C)C)[C@]1(OC(C)=O)CO[C@@H]1C[C@@H]2S` [Compound 14a, 7-deoxy-7β-thiopaclitaxel] belongs 13.5 nM; to `COCS[C@H]1C[C@H]2OC[C@@]2(OC(C)=O)[C@H]2[C@H](OC(=O)c3ccccc3)[C@]3(O)C[C@H](OC(=O)[C@H](O)[C@@H](NC(=O)c4ccccc4)c4ccccc4)C(C)=C([C@@H](OC(C)=O)C(=O)[C@]12C)C3(C)C` [Compound 16a, 7-deoxy-7β-thiomethoxymethyl paclitaxel], 0.5 nM.
Take `CS[C@H]1C[C@H]2OC[C@@]2(OC(C)=O)[C@H]2[C@H](OC(=O)c3ccccc3)[C@]3(O)C[C@H](OC(=O)[C@H](O)[C@@H](NC(=O)c4ccccc4)c4ccccc4)C(C)=C([C@@H](OC(C)=O)C(=O)[C@]12C)C3(C)C` [Compound 18a, 7-deoxy-7β-thiomethylpaclitaxel]: the IC50 was determined as 0.2 nM.
On to `CC(=O)O[C@H]1C(=O)[C@]2(C)[C@@H](SCCO)C[C@H]3OC[C@@]3(OC(C)=O)[C@H]2[C@H](OC(=O)c2ccccc2)[C@]2(O)C[C@H](OC(=O)[C@H](O)[C@@H](NC(=O)c3ccccc3)c3ccccc3)C(C)=C1C2(C)C` [Compound 20a, 7-deoxy-7β-(2-hydroxethylthio)paclitaxel], for which the IC50 came to 0.82 nM.
Consider `CS[C@H]1C[C@H]2OC[C@@]2(OC(C)=O)[C@H]2[C@H](OC(=O)c3ccccc3)[C@]3(O)C[C@H](OC(=O)[C@H](O)[C@@H](NC(=O)OC(C)(C)C)c4ccccc4)C(C)=C([C@@H](OC(C)=O)C(=O)[C@]12C)C3(C)C` [Compound 22a, 3'-NH-Boc-7-deoxy-7β-thiomethylpaclitaxel], for which the IC50 turned out to be 0.3 nM.
Take `CCS[C@H]1C[C@H]2OC[C@@]2(OC(C)=O)[C@H]2[C@H](OC(=O)c3ccccc3)[C@]3(O)C[C@H](OC(=O)[C@H](O)[C@@H](NC(=O)c4ccccc4)c4ccccc4)C(C)=C([C@@H](OC(C)=O)C(=O)[C@]12C)C3(C)C` [Compound 24a, 7-deoxy-7β-thioethylpaclitaxel]: the IC50 is 4.02 nM.
Turning to `CC(=O)O[C@H]1C(=O)[C@]2(C)[C@@H](SCC#N)C[C@H]3OC[C@@]3(OC(C)=O)[C@H]2[C@H](OC(=O)c2ccccc2)[C@]2(O)C[C@H](OC(=O)[C@H](O)[C@@H](NC(=O)c3ccccc3)c3ccccc3)C(C)=C1C2(C)C` [Compound 25a], the half-maximal inhibitory concentration (IC50) is less than 0.04 nM.
On the same count and under the same terms, to `C=CS[C@H]1C[C@H]2OC[C@@]2(OC(C)=O)[C@H]2[C@H](OC(=O)c3ccccc3)[C@]3(O)C[C@H](OC(=O)[C@H](O)[C@@H](NC(=O)c4ccccc4)c4ccccc4)C(C)=C([C@@H](OC(C)=O)C(=O)[C@]12C)C3(C)C` [Compound 27a, 7-deoxy-7β-thiovinylpaclitaxel] belongs 1.2 nM.
With `CC(=O)O[C@H]1C(=O)[C@]2(C)[C@@H](SC#N)C[C@H]3OC[C@@]3(OC(C)=O)[C@H]2[C@H](OC(=O)c2ccccc2)[C@]2(O)C[C@H](OC(=O)[C@H](O)[C@@H](NC(=O)c3ccccc3)c3ccccc3)C(C)=C1C2(C)C` [Compound 28a, 7-deoxy-7β-thiocyanatopaclitaxel], the IC50 came to 1.8 nM.
As for `CC(=O)O[C@H]1C(=O)[C@]2(C)[C@@H](SCc3ccccn3)C[C@H]3OC[C@@]3(OC(C)=O)[C@H]2[C@H](OC(=O)c2ccccc2)[C@]2(O)C[C@H](OC(=O)[C@H](O)[C@@H](NC(=O)c3ccccc3)c3ccccc3)C(C)=C1C2(C)C` [Compound 30a, 7-deoxy-7β-(thio-2-picolyl)-paclitaxel], the IC50 came out at 1.12 nM.
As for `COC(=O)/C=C/S[C@H]1C[C@H]2OC[C@@]2(OC(C)=O)[C@H]2[C@H](OC(=O)c3ccccc3)[C@]3(O)C[C@H](OC(=O)[C@H](O)[C@@H](NC(=O)c4ccccc4)c4ccccc4)C(C)=C([C@@H](OC(C)=O)C(=O)[C@]12C)C3(C)C` [Compound 34a, 7-deoxy-7β-thio-(3-methylacrylate)paclitaxel], the half-maximal inhibitory concentration (IC50) amounted to 6.97 nM.
The same measure, in the same setting: the figure for `COC(=O)/C=C\S[C@H]1C[C@H]2OC[C@@]2(OC(C)=O)[C@H]2[C@H](OC(=O)c3ccccc3)[C@]3(O)C[C@H](OC(=O)[C@H](O)[C@@H](NC(=O)c4ccccc4)c4ccccc4)C(C)=C([C@@H](OC(C)=O)C(=O)[C@]12C)C3(C)C` [Compound 35a, 7-deoxy-7β-thio-(3-methylacrylate)paclitaxel] is 1.76 nM.
On to `CC(=O)O[C@H]1C(=O)[C@@]2(C)[C@H]([C@H](OC(=O)c3ccccc3)[C@]3(O)C[C@H](OC(=O)[C@H](O)[C@@H](NC(=O)c4ccccc4)c4ccccc4)C(C)=C1C3(C)C)[C@]1(OC(C)=O)CO[C@@H]1C[C@@H]2O` [paclitaxel], for which the IC50 was in the range of 1.71 to 2.28 nM.

Still in this assay, the particulars now being: Homo sapiens; HCT-116 cells, MTS assay, 72 hours at 37° C.; drug concentration required to inhibit cell proliferation to 50% of untreated control; read-out: IC50 HCT 116.
On to `CC(=O)O[C@H]1C(=O)[C@@]2(C)[C@H]([C@H](OC(=O)c3ccccc3)[C@]3(O)C[C@H](OC(=O)[C@H](O)[C@@H](NC(=O)c4ccccc4)c4ccccc4)C(C)=C1C3(C)C)[C@]1(OC(C)=O)CO[C@@H]1C[C@H]2S(C)(=O)=O` [Compound 7a, 7-deoxy-7α-methylsulfonylpaclitaxel], for which the IC50 worked out at 72.3 nM.
`CC(=O)O[C@@H]1C2=C(C)[C@@H](OC(=O)[C@H](O)[C@@H](NC(=O)c3ccccc3)c3ccccc3)C[C@@](O)([C@@H](OC(=O)c3ccccc3)[C@@H]3[C@]4(OC(C)=O)CO[C@@H]4C[C@@H]4[C@@]3(C)C1(O)CS4(=O)=O)C2(C)C` (stereo partly drawn) [Compound 9a]: the IC50 turned out to be 2.99 nM.

Still in this assay, the particulars now being: read-out: IC50 HCT 116; HCT-116 cells, MTS assay, 72 hours at 37° C.; drug concentration required to inhibit cell proliferation to 50% of untreated control.
Take `CC(=O)O[C@H]1C(=O)[C@]2(C)[C@@H]([S+](C)[O-])C[C@H]3OC[C@@]3(OC(C)=O)[C@H]2[C@H](OC(=O)c2ccccc2)[C@]2(O)C[C@H](OC(=O)[C@H](O)[C@@H](NC(=O)c3ccccc3)c3ccccc3)C(C)=C1C2(C)C` (single isomer, unassigned) [Compound 29a, 7-deoxy-7β-methylsulfinyl-paclitaxel]: the IC50 turned out to be 3.99 nM.
The same measure, in the same setting: the figure for `CC(=O)O[C@H]1C(=O)[C@]2(C)[C@@H]([S+](C)[O-])C[C@H]3OC[C@@]3(OC(C)=O)[C@H]2[C@H](OC(=O)c2ccccc2)[C@]2(O)C[C@H](OC(=O)[C@H](O)[C@@H](NC(=O)c3ccccc3)c3ccccc3)C(C)=C1C2(C)C` (single isomer, unassigned) [Compound 29b, 7-deoxy-7β-methylsulfinyl-paclitaxel] is 12.1 nM.

Tested on in a further assay: not given
Assay: not given
Conditions: background statement; cited from earlier work. This is another data set of the same source.
For `CC(=O)O[C@H]1C(=O)[C@@]2(C)[C@H]([C@H](OC(=O)c3ccccc3)[C@]3(O)C[C@H](OC(=O)[C@H](O)[C@@H](NC(=O)c4ccccc4)c4ccccc4)C(C)=C1C3(C)C)[C@]1(OC(C)=O)CO[C@@H]1C[C@@H]2O` [paclitaxel], the “antitumor activity in in vivo animal models” value was “excellent antitumor activity”.

The IC50 is the concentration at which inhibition is half-maximal.
